From PubChem BioAssay AID1918946 (Molecular Pharmacology Branch, DTP, NCI, 2023)

Tested on: 885512-296-R-J2-PDC complex spheroid viability
Test: Anticancer human tumor 885512-296-R-J2-PDC patient-derived breast carcinoma cell line growth inhibition
Settings: for IC50: curve of first compound; for viability, T/C: stronger effect = lower value
How it was run: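 Multicellular complex spheroids of tumor cells with human endothelial cells (HUVEC) and mesenchymal stem cells; the LSD1 inhibitor iadademstat was combined with standard-of-care or investigational agents. Top concentration at or near clinical Cmax, half-log dilutions; final DMSO ≤0.25%.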

[1] = second compound 0.1 µM, first compound 0.0316 µM
[2] = second compound 0.1 µM, first compound 0.1 µM
[3] = second compound 0.1 µM, first compound 0.316 µM
[4] = second compound 0.1 µM, first compound 1 µM
[5] = second compound 0.1 µM, first compound 3.16 µM
[6] = second compound 0.1 µM, first compound 10 µM
[7] = second compound 0.316 µM, first compound 0.0316 µM
[8] = second compound 0.316 µM, first compound 0.1 µM
[9] = second compound 0.316 µM, first compound 0.316 µM
[10] = second compound 0.316 µM, first compound 1 µM
[11] = second compound 0.316 µM, first compound 3.16 µM
[12] = second compound 0.316 µM, first compound 10 µM
[13] = second compound 1 µM, first compound 0.0316 µM
[14] = second compound 1 µM, first compound 0.1 µM
[15] = second compound 1 µM, first compound 0.316 µM
[16] = second compound 1 µM, first compound 1 µM
[17] = second compound 1 µM, first compound 3.16 µM
[18] = second compound 1 µM, first compound 10 µM
[19] = second compound 3.16 µM, first compound 0.0316 µM
[20] = second compound 3.16 µM, first compound 0.1 µM
[21] = second compound 3.16 µM, first compound 0.316 µM
[22] = second compound 3.16 µM, first compound 1 µM
[23] = second compound 3.16 µM, first compound 3.16 µM
[24] = second compound 3.16 µM, first compound 10 µM
[25] = second compound 10 µM, first compound 0.0316 µM
[26] = second compound 10 µM, first compound 0.1 µM
[27] = second compound 10 µM, first compound 0.316 µM
[28] = second compound 10 µM, first compound 1 µM
[29] = second compound 10 µM, first compound 3.16 µM
[30] = second compound 10 µM, first compound 10 µM
[31] = second compound 0.1 µM, first compound 0.00316 µM
[32] = second compound 0.1 µM, first compound 0.01 µM
[33] = second compound 0.316 µM, first compound 0.00316 µM
[34] = second compound 0.316 µM, first compound 0.01 µM
[35] = second compound 1 µM, first compound 0.00316 µM
[36] = second compound 1 µM, first compound 0.01 µM
[37] = second compound 3.16 µM, first compound 0.00316 µM
[38] = second compound 3.16 µM, first compound 0.01 µM
[39] = second compound 10 µM, first compound 0.00316 µM
[40] = second compound 10 µM, first compound 0.01 µM
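Also: spheroids exposed to agents for 7 days before viability read.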

| Compound | IC50 (second compound 0.1 µM) [nM] | IC50 (second compound 0.316 µM) [nM] | IC50 (second compound 1 µM) [nM] | IC50 (second compound 3.16 µM) [nM] | IC50 (second compound 10 µM) [nM] | viability, T/C [1] [%] | viability, T/C [2] [%] | viability, T/C [3] [%] | viability, T/C [4] [%] | viability, T/C [7] [%] | viability, T/C [8] [%] | viability, T/C [9] [%] | viability, T/C [10] [%] | viability, T/C [13] [%] | viability, T/C [14] [%] | viability, T/C [15] [%] | viability, T/C [16] [%] | viability, T/C [19] [%] | viability, T/C [20] [%] | viability, T/C [21] [%] | further results |
| --- | --- | --- | --- | --- | --- | --- | --- | --- | --- | --- | --- | --- | --- | --- | --- | --- | --- | --- | --- | --- | --- |
| CC(C)c1c(-c2ccccc2)nc2c(C#N)c[nH]n2c1=O + NC1CCC(NC2CC2c2ccccc2)CC1 | > 10000 | > 10000 | > 10000 | > 10000 | > 10000 | 121 | 123 | 137 | 128 | 133 | 126 | 137 | 131 | 135 | 114 | 129 | 123 | 111 | 122 | 120 | viability, T/C [5]: 116%; viability, T/C [6]: 119%; viability, T/C [11]: 118%; viability, T/C [12]: 113%; viability, T/C [17]: 148%; viability, T/C [18]: 110%; viability, T/C [22]: 145%; viability, T/C [23]: 115%; viability, T/C [24]: 118%; viability, T/C [25]: 99.3%; viability, T/C [26]: 85.5%; viability, T/C [27]: 97.2%; viability, T/C [28]: 109%; viability, T/C [29]: 104%; viability, T/C [30]: 114% |
| CC1COCCN1c1cc(-c2ccnn2C)c2ccnc(-c3ccn[nH]3)c2n1 (stereo not given) + NC1CCC(NC2CC2c2ccccc2)CC1 | < 3.16 | < 3.16 | < 3.16 | < 3.16 | < 3.16 | 9.16 | 5.02 | 7.43 | 11.5 | 4.73 | 4.6 | 6.77 | 5.15 | 5.72 | 5.22 | 4.61 | 8.49 | 3.3 | 6.46 | 4.63 | viability, T/C [31]: 42%; viability, T/C [32]: 8.7%; viability, T/C [33]: 42%; viability, T/C [34]: 10.9%; viability, T/C [35]: 38.8%; viability, T/C [36]: 10.6%; viability, T/C [37]: 38.8%; viability, T/C [38]: 7.56%; viability, T/C [22]: 4.98%; viability, T/C [39]: 23.8%; viability, T/C [40]: 5.72%; viability, T/C [25]: 3.24%; viability, T/C [26]: 2.51%; viability, T/C [27]: 2.18%; viability, T/C [28]: 2.8% |
| COc1ccc([C@@H](O)c2cc(-c3ncnc4cc(N5CCOCC5)ccc34)c(F)cc2Cl)nn1 + NC1CCC(NC2CC2c2ccccc2)CC1 | 3530 | 3000 | 2660 | 3230 | 2190 | 114 | 104 | 90.3 | 91.8 | 128 | 119 | 101 | 85.2 | 142 | 102 | 102 | 89.8 | 117 | 109 | 105 | viability, T/C [5]: 50.1%; viability, T/C [6]: 12.1%; viability, T/C [11]: 46.3%; viability, T/C [12]: 11.4%; viability, T/C [17]: 36.6%; viability, T/C [18]: 9.41%; viability, T/C [22]: 92.8%; viability, T/C [23]: 49.7%; viability, T/C [24]: 10.4%; viability, T/C [25]: 130%; viability, T/C [26]: 94.9%; viability, T/C [27]: 87.2%; viability, T/C [28]: 84.3%; viability, T/C [29]: 35%; viability, T/C [30]: 5.65% |
| O=C(C=Cn1cnc(-c2cc(C(F)(F)F)cc(C(F)(F)F)c2)n1)NNc1cnccn1 + NC1CCC(NC2CC2c2ccccc2)CC1 | < 3.16 | < 3.16 | < 3.16 | < 3.16 | < 3.16 | 7 | 5.05 | 5.84 | 8.68 | 4.07 | 1.21 | 8.2 | 6.75 | 1.46 | 1.03 | 3.55 | 0.74 | 1.67 | 0.99 | 0.76 | viability, T/C [31]: 34%; viability, T/C [32]: 7.13%; viability, T/C [33]: 36.5%; viability, T/C [34]: 6.98%; viability, T/C [35]: 47.5%; viability, T/C [36]: 6.6%; viability, T/C [37]: 26.8%; viability, T/C [38]: 6.99%; viability, T/C [22]: 3.58%; viability, T/C [39]: 26.8%; viability, T/C [40]: 7.4%; viability, T/C [25]: 1.17%; viability, T/C [26]: 0.87%; viability, T/C [27]: 2.75%; viability, T/C [28]: 0.69% |
